Laboratory results as given in PMC7719162, “Positioning of an unprecedented spiro[5.5]undeca ring system into kinase inhibitor space” (Scientific Reports, 2020).
Read-outs that look alike come from different tables or passages of the source.

What was measured:
GSK3b = target: T1, GSK3b (Homo sapiens, UniProt P49841); settings: cited from earlier work
T1 construct: purchased Reaction Biology Corp

TRKA [1] = target: T2, TRKA (Homo sapiens, UniProt P04629); settings: cited from earlier work
T2 construct: purchased Reaction Biology Corp
T2 sequence (P04629 33-796): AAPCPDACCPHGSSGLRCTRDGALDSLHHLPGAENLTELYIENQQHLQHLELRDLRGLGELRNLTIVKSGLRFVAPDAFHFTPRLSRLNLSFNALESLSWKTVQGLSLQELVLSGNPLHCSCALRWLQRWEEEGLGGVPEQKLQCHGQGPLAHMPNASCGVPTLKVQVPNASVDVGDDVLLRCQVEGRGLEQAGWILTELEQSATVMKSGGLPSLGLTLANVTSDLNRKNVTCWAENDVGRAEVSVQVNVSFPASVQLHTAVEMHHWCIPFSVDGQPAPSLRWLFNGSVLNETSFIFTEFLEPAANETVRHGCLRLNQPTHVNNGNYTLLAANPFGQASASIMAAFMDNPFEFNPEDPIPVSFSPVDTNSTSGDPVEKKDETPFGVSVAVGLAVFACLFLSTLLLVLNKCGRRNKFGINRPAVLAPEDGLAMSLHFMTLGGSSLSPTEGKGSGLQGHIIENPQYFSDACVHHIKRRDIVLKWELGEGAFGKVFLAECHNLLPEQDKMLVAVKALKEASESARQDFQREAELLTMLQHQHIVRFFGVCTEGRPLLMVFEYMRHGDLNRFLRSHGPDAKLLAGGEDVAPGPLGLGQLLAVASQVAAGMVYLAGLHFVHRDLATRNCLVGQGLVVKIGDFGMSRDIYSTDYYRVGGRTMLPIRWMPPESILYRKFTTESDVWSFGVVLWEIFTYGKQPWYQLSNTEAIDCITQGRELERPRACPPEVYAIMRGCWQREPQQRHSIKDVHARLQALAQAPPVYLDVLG

P38b/MAPK11 = target: T3, P38b/MAPK11 (Homo sapiens, UniProt Q15759); settings: cited from earlier work
T3 construct: purchased Reaction Biology Corp

TRKC (G623R) = target: T4, TRKC (G623R) (Homo sapiens, UniProt Q16288, G623R); assay: Kinase panel assay (radiolabelled); type: biochemical; settings: 30 μM compound, ATP 10 μM, duplicates Data 1/Data 2
T4 construct: purchased Reaction Biology Corp
T4 sequence (Q16288 32-839 G623R): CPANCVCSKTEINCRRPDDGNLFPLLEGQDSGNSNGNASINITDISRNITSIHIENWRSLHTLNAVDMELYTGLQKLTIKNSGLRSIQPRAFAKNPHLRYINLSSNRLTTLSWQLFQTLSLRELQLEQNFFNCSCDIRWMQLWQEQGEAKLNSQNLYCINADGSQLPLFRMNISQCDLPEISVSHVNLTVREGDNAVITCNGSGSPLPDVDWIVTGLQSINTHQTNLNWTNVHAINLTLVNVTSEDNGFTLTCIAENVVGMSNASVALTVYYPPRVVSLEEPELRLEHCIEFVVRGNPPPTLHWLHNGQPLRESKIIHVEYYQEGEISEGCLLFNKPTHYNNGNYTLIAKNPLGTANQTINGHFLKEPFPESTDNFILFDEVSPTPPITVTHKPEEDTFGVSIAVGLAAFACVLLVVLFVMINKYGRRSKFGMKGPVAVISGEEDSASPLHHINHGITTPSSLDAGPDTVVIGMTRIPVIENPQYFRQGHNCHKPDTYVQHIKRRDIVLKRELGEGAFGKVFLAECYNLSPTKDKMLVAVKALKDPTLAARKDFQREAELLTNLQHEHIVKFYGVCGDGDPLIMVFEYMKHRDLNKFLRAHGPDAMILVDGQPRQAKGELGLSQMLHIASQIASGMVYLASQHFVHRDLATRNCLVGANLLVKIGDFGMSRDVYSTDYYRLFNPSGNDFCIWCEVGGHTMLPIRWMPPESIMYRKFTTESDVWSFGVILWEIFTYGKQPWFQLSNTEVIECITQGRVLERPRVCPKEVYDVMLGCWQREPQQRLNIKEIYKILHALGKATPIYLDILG

TRKC = target: T5, TRKC (Homo sapiens, UniProt Q16288); assay: Kinase panel assay (radiolabelled); type: biochemical; settings: ATP 10 μM
T5 construct: purchased Reaction Biology Corp
T5 sequence (Q16288 32-839): as the sequence (Q16288 32-839 G623R) above, with R592G counted along it

EIF2AK4 = target: T6, EIF2AK4 (Homo sapiens, UniProt Q9P2K8); assay: Kinase panel assay (radiolabelled); type: biochemical; settings: 30 μM compound, ATP 10 μM, duplicates Data 1/Data 2
T6 construct: purchased Reaction Biology Corp
T6 sequence (Q9P2K8 whole entry): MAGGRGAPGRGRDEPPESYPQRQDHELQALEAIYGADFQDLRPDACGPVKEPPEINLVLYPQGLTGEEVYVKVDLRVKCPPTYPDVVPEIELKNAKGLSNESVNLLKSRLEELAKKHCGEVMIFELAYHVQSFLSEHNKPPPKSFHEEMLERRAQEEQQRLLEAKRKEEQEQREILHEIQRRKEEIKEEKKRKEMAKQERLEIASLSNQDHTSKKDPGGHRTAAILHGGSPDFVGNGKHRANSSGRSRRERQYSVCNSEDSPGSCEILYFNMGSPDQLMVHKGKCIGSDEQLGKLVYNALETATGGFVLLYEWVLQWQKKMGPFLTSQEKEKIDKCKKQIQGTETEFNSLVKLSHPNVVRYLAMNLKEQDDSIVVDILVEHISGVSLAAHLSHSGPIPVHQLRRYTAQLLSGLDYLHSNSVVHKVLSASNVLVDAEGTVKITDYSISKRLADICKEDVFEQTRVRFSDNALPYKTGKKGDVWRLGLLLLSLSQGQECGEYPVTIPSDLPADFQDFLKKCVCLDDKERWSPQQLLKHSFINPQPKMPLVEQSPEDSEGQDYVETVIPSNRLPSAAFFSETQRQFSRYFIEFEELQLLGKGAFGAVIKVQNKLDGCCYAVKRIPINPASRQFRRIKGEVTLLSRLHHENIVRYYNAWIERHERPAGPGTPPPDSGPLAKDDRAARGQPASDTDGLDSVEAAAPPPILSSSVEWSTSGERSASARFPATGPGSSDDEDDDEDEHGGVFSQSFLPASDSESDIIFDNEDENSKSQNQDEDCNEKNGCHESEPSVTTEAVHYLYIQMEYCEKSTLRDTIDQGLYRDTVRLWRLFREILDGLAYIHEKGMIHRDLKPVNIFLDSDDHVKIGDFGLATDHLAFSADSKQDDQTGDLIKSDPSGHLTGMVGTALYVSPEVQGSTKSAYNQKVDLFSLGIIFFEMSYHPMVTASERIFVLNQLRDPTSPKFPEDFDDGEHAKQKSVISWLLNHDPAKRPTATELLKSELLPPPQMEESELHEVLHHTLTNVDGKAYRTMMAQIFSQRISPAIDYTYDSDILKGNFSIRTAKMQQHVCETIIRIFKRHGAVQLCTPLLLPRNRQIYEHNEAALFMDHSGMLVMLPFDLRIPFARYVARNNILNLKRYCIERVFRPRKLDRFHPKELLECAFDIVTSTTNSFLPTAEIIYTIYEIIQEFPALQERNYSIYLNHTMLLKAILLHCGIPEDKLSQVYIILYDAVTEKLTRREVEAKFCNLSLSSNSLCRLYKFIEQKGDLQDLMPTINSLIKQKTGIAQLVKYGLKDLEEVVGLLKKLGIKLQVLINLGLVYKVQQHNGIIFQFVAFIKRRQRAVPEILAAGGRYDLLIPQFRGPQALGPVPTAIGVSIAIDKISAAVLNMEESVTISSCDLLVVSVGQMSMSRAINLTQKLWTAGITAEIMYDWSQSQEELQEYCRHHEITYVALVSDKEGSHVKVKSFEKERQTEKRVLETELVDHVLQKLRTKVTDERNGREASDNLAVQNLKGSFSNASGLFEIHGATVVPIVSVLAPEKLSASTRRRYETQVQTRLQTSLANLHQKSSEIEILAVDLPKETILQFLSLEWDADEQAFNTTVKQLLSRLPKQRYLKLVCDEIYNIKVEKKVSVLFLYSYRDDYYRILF

TRKA-TFG (TRK-T3) = target: T7, TRKA-TFG (TRK-T3) (Homo sapiens, UniProt P04629+Q92734); assay: Kinase panel assay (radiolabelled); type: biochemical; settings: 30 μM compound, ATP 10 μM, duplicates Data 1/Data 2
T7 construct: TFG (fusion partner); purchased Reaction Biology Corp
T7 sequence (Q92734+P04629 fused): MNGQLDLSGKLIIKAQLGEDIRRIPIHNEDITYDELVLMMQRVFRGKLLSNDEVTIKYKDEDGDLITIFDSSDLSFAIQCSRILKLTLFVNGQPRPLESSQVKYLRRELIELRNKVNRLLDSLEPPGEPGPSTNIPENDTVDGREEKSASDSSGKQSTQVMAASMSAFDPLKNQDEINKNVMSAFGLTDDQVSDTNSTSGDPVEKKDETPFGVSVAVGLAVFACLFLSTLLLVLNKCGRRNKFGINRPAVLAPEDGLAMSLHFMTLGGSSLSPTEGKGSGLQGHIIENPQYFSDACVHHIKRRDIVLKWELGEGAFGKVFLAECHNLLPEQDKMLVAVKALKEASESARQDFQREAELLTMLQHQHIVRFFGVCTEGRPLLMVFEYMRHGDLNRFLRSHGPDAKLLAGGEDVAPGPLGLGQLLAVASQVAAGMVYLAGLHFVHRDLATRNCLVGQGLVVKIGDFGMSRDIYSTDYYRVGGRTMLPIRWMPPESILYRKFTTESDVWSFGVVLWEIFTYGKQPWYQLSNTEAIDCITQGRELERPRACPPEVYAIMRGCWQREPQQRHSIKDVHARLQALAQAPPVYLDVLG

TRKC (G623R/L686M) = target: T8, TRKC (G623R/L686M) (Homo sapiens, UniProt Q16288, G623R/L686M); assay: Kinase panel assay (radiolabelled); type: biochemical; settings: 30 μM compound, ATP 10 μM, duplicates Data 1/Data 2
T8 construct: purchased Reaction Biology Corp
T8 sequence (Q16288 32-839 G623R/L686M): as the sequence (Q16288 32-839 G623R) above, with L655M counted along it

IL-6 = assay: Secreted IL-6 ELISA in LPS-induced BV-2 cells; type: cell-based, murine
Method: (§1) To evaluate the secreted level of Prostaglandin E2 (PGE2), Tumor necrosis factor (TNF-α), Interleukin (IL-6), Interleukin (IL-1β), BV2 cells were seeded in a 6 well plate at the density of 1.5 × 10^6 cells/well in DMEM and incubated for 24 h. Seeded cells sere pretreated and, activated with LPS for next 24 h. conditioned medium from treated cells were collected and stored at -80 degree for longer period of time. The amount of TNF-α, IL-1β, PGE2,and IL-6 were evaluated using the competitive enzyme immunoassay kit. PGE2 kit were obtained from (Cayman Chemical, Ann Arbor, MI, USA) and TNF-α, IL-1β, and IL-6 were measured using ELISA development kits (R&D Systems, Minneapolis, MN, USA). All the protocol was exactly followed as written in the manual.

AMPK(A1/B1/G2) [2] = target: T9, AMPK(A1/B1/G2) (Homo sapiens, UniProt Q13131); assay: Kinase panel assay (radiolabelled); type: biochemical; settings: 30 μM compound, ATP 10 μM; duplicates Data 1/Data 2
T9 construct: purchased Reaction Biology Corp

AMPK(A1/B1/G2) [3] = target: T10, AMPK(A1/B1/G2) (Homo sapiens, UniProt Q13131+Q9UGJ0+Q9Y478); assay: Kinase panel assay (radiolabelled); type: biochemical; settings: 30 μM compound, ATP 10 μM; duplicates Data 1/Data 2; read-out: % Enzyme Activity (relative to DMSO controls)
T10 construct: purchased Reaction Biology Corp

iNOS = assay: Western blot of iNOS in LPS-induced BV-2 cells; type: cell-based, murine
Method: Western blot analysis was performed to see the protein expression of the iNOS and COX-2 in the BV2 cells. BV2 cells were seeded in a 6 well plate at the density of 6 × 10^5 cells/well overnight and cells were treated as mentioned earlier in the cell treatment section and this time treatment was performed for 6 h only. After 6 h, cells were harvested and lysed with lysis buffer containing (RIPA, protease inhibitor & phosphatase inhibitor), protein estimation was performed using biorad assay and the 30 µg of total protein was separated by 8% SDS-PAGE gel electrophoresis, transferred to nitrocellulose membranes, and incubated with primary antibodies against tubulin, iNOS, COX-2, and α-tubulin. […] membranes were incubated with horseradish peroxidase-conjugated secondary antibodies, and protein bands were visualized using ECL Western Blotting Detection Reagents (Amersham Pharmacia Biotech). Quantitative analysis of the protein bands was quantified using Image Master 2D Elite software (version 3.1, Amersham Pharmacia Biotech).

JNK3 = target: T11, JNK3 (Homo sapiens, UniProt P53779); assay: Kinase panel assay (radiolabelled); type: biochemical; settings: ATP 10 μM
T11 construct: purchased Reaction Biology Corp
T11 sequence (P53779 whole entry): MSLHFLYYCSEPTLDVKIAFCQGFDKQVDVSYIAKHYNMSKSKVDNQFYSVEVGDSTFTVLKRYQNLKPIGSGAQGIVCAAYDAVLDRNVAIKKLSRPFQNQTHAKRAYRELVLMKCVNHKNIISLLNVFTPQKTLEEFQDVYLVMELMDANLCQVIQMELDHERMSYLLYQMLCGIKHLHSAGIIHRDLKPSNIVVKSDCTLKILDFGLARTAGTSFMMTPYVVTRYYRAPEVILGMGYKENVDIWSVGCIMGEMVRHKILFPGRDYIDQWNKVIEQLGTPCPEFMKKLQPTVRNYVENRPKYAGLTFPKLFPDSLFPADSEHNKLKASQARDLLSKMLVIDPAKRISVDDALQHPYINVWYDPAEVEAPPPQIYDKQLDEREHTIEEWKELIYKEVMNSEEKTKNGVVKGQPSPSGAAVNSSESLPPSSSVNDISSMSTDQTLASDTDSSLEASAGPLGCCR

TNF-α = assay: Secreted TNF-α ELISA in LPS-induced BV-2 cells; type: cell-based, murine
Method: as §1

TRKA [4] = target: T2, TRKA; assay: Kinase panel assay (radiolabelled); type: biochemical; settings: ATP 10 μM
AMPK(A2/B2/G2) [5] = target: T12, AMPK(A2/B2/G2) (Homo sapiens, UniProt O43741+P54646+Q9UGJ0); assay: Kinase panel assay (radiolabelled); type: biochemical; settings: 30 μM compound, ATP 10 μM; duplicates Data 1/Data 2; read-out: % Enzyme Activity (relative to DMSO controls)
T12 construct: purchased Reaction Biology Corp

AMPK(A2/B2/G2) [6] = target: T13, AMPK(A2/B2/G2) (Homo sapiens, UniProt P54646); assay: Kinase panel assay (radiolabelled); type: biochemical; settings: 30 μM compound, ATP 10 μM; duplicates Data 1/Data 2
T13 construct: purchased Reaction Biology Corp

GSK3β = GSK3β (Homo sapiens, UniProt P49841); assay: GSK3β radiolabelled kinase assay (% residual activity, IC50, ATP competition); type: biochemical
GSK3β, sequence (P49841 whole entry): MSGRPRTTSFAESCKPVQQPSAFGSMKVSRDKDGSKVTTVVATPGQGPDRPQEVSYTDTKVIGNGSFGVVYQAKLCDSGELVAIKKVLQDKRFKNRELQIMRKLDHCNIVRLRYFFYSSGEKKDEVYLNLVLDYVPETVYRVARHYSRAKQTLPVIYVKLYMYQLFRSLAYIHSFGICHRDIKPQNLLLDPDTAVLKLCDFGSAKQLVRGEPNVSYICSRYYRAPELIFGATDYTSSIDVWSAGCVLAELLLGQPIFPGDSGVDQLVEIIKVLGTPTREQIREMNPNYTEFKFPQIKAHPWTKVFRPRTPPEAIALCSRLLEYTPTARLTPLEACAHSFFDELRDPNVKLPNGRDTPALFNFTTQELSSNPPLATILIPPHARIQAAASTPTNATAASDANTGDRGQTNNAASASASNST

[7] = read-out: % Enzyme Activity (relative to DMSO controls)
[8] = 30 μM compound, duplicates Data 1/Data 2
[9] = 30 μM compound, duplicates Data 1/Data 2, read-out: % Enzyme Activity (relative to DMSO controls)
[10] = 30 μM, average ± SD, read-out: % Residual Activity at 30 μM

T1 sequence (P49841 whole entry): as above

O=C1C=CC2(C=C1)OCC(Cc1cc(C(F)(F)F)cc(C(F)(F)F)c1)C(=O)N2c1ccccc1 (racemic) [1c]
inhibitory activity on GSK-3β (GSK3b; 30 μM): did not show any inhibitory activity | % Residual Activity at 30 μM (GSK3b): 107.5 ± 1.9% | % Residual Activity at 30 μM (TRKA [1]): 98.3 ± 0.1% | % Residual Activity at 30 μM (P38b/MAPK11): 87.0 ± 1.1%

O=C1C=CC2(C=C1)OCC(Cc1cn(-c3cccc(Cl)c3)nn1)C(=O)N2c1ccccc1 (stereo not shown) [2d, 3-((1-(3-Chlorophenyl)-1H-1,2,3-triazol-4-yl)methyl)-5-phenyl-1-oxa-5-azaspiro[5.5]undeca-7,10-diene-4,9-dione]
% Enzyme Activity (relative to DMSO controls) (TRKC (G623R)): 90.32% | remaining activity at 30 µM (TRKC (G623R); [7]): 92.1% | % Enzyme Activity (relative to DMSO controls) (TRKC; [8]): 102.60% | remaining activity at 30 µM (TRKC; [9]): 108% | remaining activity at 30 µM (TRKC; [10]): 105 ± 3.9% | % Enzyme Activity (relative to DMSO controls) (EIF2AK4): 102.49% | remaining activity at 30 µM (EIF2AK4; [7]): 104% | % Enzyme Activity (relative to DMSO controls) (TRKA-TFG (TRK-T3)): 102.82% | remaining activity at 30 µM (TRKA-TFG (TRK-T3); [7]): 109% | % Enzyme Activity (relative to DMSO controls) (TRKC (G623R/L686M)): 95.31% | remaining activity at 30 µM (TRKC (G623R/L686M); [7]): 96% | IL-6 level (IL-6): concentration-dependent manner | % Enzyme Activity (relative to DMSO controls) (AMPK(A1/B1/G2) [2]): 66.48% | remaining activity at 30 µM (AMPK(A1/B1/G2) [3]): 68% | iNOS expression level (iNOS; 0.01 to 1 uM, LPS-induced BV-2 cells): downregulated iNOS and COX-2 more efficiently than compound 2a | potency relative to L-NMMA (iNOS; regulation of iNOS and COX-2, LPS-induced BV-2 cells): 20 fold | % Enzyme Activity (relative to DMSO controls) (JNK3; [8]): 95.42% | remaining activity at 30 µM (JNK3; [9]): 95.5% | remaining activity at 30 µM (JNK3; [10]): 95.4 ± 0.1% | TNF-α level (TNF-α): concentration-dependent manner | % Enzyme Activity (relative to DMSO controls) (TRKA [4]; [8]): 115.47% | remaining activity at 30 µM (TRKA [4]; [9]): 119% | remaining activity at 30 µM (TRKA [4]; [10]): 117 ± 2.6% | remaining activity at 30 µM (AMPK(A2/B2/G2) [5]): 114% | % Enzyme Activity (relative to DMSO controls) (AMPK(A2/B2/G2) [6]): 111.36% | IC50 (GSK3β; ATP 1 μM (Table 2), read-out: IC50 on GSK3β (converted)): 7.04 µM | remaining activity at 10 µM (GSK3β; at 10 μM compound): 51.1 ± 6.1%
